Experimental data reported in patent publication US20220305017A1, “COMPOSITIONS AND METHODS FOR THE TREATMENT OF ESTROGEN-DEPENDENT DISORDERS” (ObsEva S.A., priority 2019, published 2022).
Values joined by “and” are separate entries in the source; they are usually repeats but may differ in a detail not shown here. Equal entries are not always repeated.

Legend:
[1] = tested on: human female patients diagnosed as having adenomyosis; experiment: human clinical trial in adenomyosis (single-patient longitudinal case study and multi-patient analysis, n = 6); assay type: in vivo
Excerpt: This examples describes the results of a human clinical trial conducted to evaluate the ability of a GnRH antagonist, 3-[2-fluoro-5-(2,3-difluoro-6-methoxybenzyloxy)4-methoxyphenyl]-2,4-dioxo-1,2,3,4-tetrahydrothieno [3,4d]pyrimidine-5-carboxylic acid (represented by formula (VI)), or a pharmaceutically acceptable salt thereof, to treat adenomyosis, an estrogen-dependent disease, in human patients diagnosed as having this condition.
One aim of this study was to investigate the ability of the GnRH antagonist to maintain its therapeutic effects despite being administered to patients in a progressively lower dosage throughout the trial. To this end, the patients treated in this study was first administered the GnRH antagonist of formula (VI) in an amount of 200 mg/day during an initial 12-week period. The GnRH antagonist was then administered to the patients in a reduced amount of 100 mg/day during a subsequent 12-week period. The patients' responsiveness to the GnRH antagonist was monitored throughout the study.
In addition to assessing the effectiveness of the GnRH antagonist when administered at lower doses, another aim of this study was to evaluate the ability of the GnRH antagonist to sustain its therapeutic effects even after treatment was ceased altogether. Accordingly, after being periodically administered the GnRH antagonist of formula (VI) over the course of 24 weeks, first in an amount of 200 mg/day and then in an amount of 100 mg/day, treatment with the GnRH antagonist was halted entirely. The patients were then monitored during a post-treatment follow-up period to analyze the extent to which the therapeutic effects of the compound were sustained.
To test the effects of compound (VI), a total of n=6 human female patients diagnosed as having adenomyosis were administered compound (VI) in accordance with the dosing schedule described above. One of these patients in particular was closely monitored beginning well before their treatment with compound (VI) was initiated. The specific results of this patient's therapy are described in the section entitled “Single-Patient Longitudinal Case Study,” below. The cumulative set of results for all 6 patients is reported in the section entitled “Multi-Patient Analysis,” below.
As part of the clinical trial, a case study was conducted in which a single patient of reproductive age having clinically diagnosed adenomyosis was monitored during the course of treatment with compound (VI). The patient was nulliparous. Two years before the study began, the patient presented with heavy menstrual bleeding, pelvic pain, and dysmenorrhea. […] Their gynecologist prescribed ulipristal acetate (UPA), a selective progesterone receptor modulator (SPRM), to be administered in an amount of 5 mg/day over the course of a treatment period lasting three months.
The patient was then recommended for treatment with the GnRH antagonist represented by formula (VI) herein. Accordingly, the patient was orally administered compound (VI) in an amount of 200 mg/day for three months. Following this initial three-month period, the patient was orally administered compound (VI) in a reduced amount of 100 mg/day for a subsequent three-period. During both treatment periods, compound (VI) was administered to the patient in the form of a choline salt.
The patient was recommended for once-daily treatment with the GnRH antagonist of formula (VI). Accordingly, the patient was administered the GnRH antagonist of formula (VI) in an amount of 200 mg/day during a first treatment period, which lasted three months. At the conclusion of the first treatment period, the patient began a second treatment period in which they were administered compound (VI) in a reduced amount of 100 mg/day for three months. During both treatment periods, compound (VI) was administered to the patient in the form of a choline salt. […]

[2] = tested on: human female patients diagnosed as having uterine fibroids; experiment: PRIMROSE 2 Phase 3 placebo-controlled trial in uterine fibroids; assay type: in vivo
Excerpt: This example describes the results of two Phase 3, double-blind, randomized, placebo-controlled, multicenter, human clinical trials undertaken to evaluate the efficacy of the GnRH antagonist represented by formula (VI) in a series of patients suffering from uterine fibroids. In these trials, referred to herein as “PRIMROSE 1” and “PRIMROSE 2,” human female patients diagnosed as having uterine fibroids were periodically administered compound (VI), 3-[2-fluoro-5-(2,3-difluoro-6-methoxybenzyloxy)4-methoxyphenyl]-2,4-dioxo-1,2,3,4-tetrahydrothieno [3,4d]pyrimidine-5-carboxylic acid, in the form of a choline salt over the course of a 12-month treatment period. Patients were administered compound (VI) once daily in an amount of either 100 mg or 200 mg. Patients receiving compound (VI) in a daily amount of 200 mg also received once daily hormonal add-back therapy (ABT), which consisted of […] of β17-estradiol (E2) per day and 0.5 mg of norethindrone acetate (NETA) per day.
The PRIMROSE 1 study, conducted in the United States, enrolled 526 women. The PRIMROSE 2 study, conducted in the United States and Europe, enrolled 535 women.
Patients were randomized to one of several cohorts: (i) placebo, (ii) 100 mg/day of compound (VI), or (iii) 200 mg/day of compound (VI). Patients receiving 200 mg/day of compound (VI) also received once-daily ABT containing 1.0 mg E2 and 0.5 mg NETA.
Patients were assessed for uterine fibroid symptomology at baseline, after 24 weeks of treatment, and again after 52 weeks of treatment. […] Patients were also assessed in order to determine the number of days of uterine bleeding during their last 28-day interval prior to week 24 of treatment with placebo or compound (VI).
Pain levels were measured using a Verbal Rating Score (VRS), as described herein. Patients were also assessed to determine the proportion that reported an improvement in quality of life using the Uterine Fibroids Symptoms and Health-Related Quality of Life questionnaire.
To evaluate the safety of compound (VI), patients' bone mineral density levels were measured at baseline and at various timepoints during the studies.

[3] = n = 6, after 12 weeks, 200 mg/day
[4] = single patient, after 24 weeks (200 mg/day 12 weeks, then 100 mg/day 12 weeks)

COc1cc(F)c(-n2c(=O)[nH]c3csc(C(=O)O)c3c2=O)cc1OCc1c(OC)ccc(F)c1F [Compound (VI), 3-[2-fluoro-5-(2,3-difluoro-6-methoxybenzyloxy)4-methoxyphenyl]-2,4-dioxo-1,2,3,4-tetrahydrothieno [3,4d]pyrimidine-5-carboxylic acid]
serum E2 ([1]; all n = 6 cases, first 12 weeks, 200 mg/day): less than 20 pg/ml | anemia ([1]; all n = 6 patients, after 12 weeks, 200 mg/day): resolved | adenomyotic lesions by MRI ([1]; all n = 6 patients, after 24 weeks): remained smaller than those observed at baseline | BMD by DEXA ([1]; each of n = 6 patients, after 24 weeks): either minimal change or no change from baseline | Week 24 Uterine Volume ([1]; individual patients 1-3, 200 mg/day 12 weeks, then 100 mg/day 12 weeks, MRI): 440 cm^3 and 75 cm^3 and 266 cm^3 | Week 12 Uterine Volume ([1]; individual patients 1-6, 200 mg/day oral for 12 weeks (choline salt), MRI): 81 cm^3 and 70 cm^3 (2×) and 290 cm^3 and 84 cm^3 and 138 cm^3 | side effects ([1]; n = 6, 200 mg/day treatment period, resolved after reduction to 100 mg/day): hot flushes and vaginal dryness | menstrual status [1, 3]: sustained amenorrhea | pelvic pain [1, 3]: substantially reduced | mean uterine volume by MRI ([1]; n = 6, after 12 weeks, 200 mg/day, baseline mean 320 cm^3): 122 cm^3 | menstrual status ([1]; n = 6, weeks 13-24, 100 mg/day): remained in amenorrhea | all of the remaining EHP-30 scales ([1]; single patient, after 24 weeks): 0 | endometrial thickness by vaginal ultrasound ([1]; single patient, after 24 weeks): 3 mm | hemoglobin (Hb) level [1, 4]: 13.6 g/dL | uterine volume by MRI [1, 4]: 440 cm^3 | menstrual status ([1]; single patient, after 24 weeks of treatment): still in amenorrhea | EHP-30 scale for emotional well-being ([1]; single patient, after 24 weeks, baseline 58.3): 4.2 | uterine volume on clinical evaluation, equivalent weeks of gestation ([1]; single patient, after first 12 weeks, 200 mg/day, 16-17 weeks before treatment): 10 weeks of gestation | uterine volume by MRI ([1]; single patient, after first 12 weeks, 200 mg/day, baseline approximately 875 cm^3): 290 cm^3 | concentration of E2 ([1]; single patient, after four weeks of 200 mg/day oral (choline salt), baseline 45 pg/mL): less than 20 pg/mL | side effects (hot flushes, vaginal dryness) after dose reduction ([1]; single patient, after reduction to 100 mg/day): disappeared | 5-scaled EHP-30 score ([1]; single patient, end of first 12 weeks, 200 mg/day): 0 | side effects ([1]; single patient, first treatment period, 200 mg/day): a few instances of hot flushes and vaginal dryness | menstrual status ([1]; single patient, initial 12-week period, 200 mg once daily): remained in amenorrhea | hemoglobin (Hb) level ([1]; single patient, week 12, 200 mg/day, baseline 10 g/dL): 12.2 g/dL | E2 level ([1]; single patient, week 16, reduced dose 100 mg/day (weeks 13-24)): 38 pg/mL | E2 level ([1]; single patient, week 20, reduced dose 100 mg/day (weeks 13-24)): 26 pg/mL | E2 level ([1]; single patient, week 24, reduced dose 100 mg/day (weeks 13-24)): 52 pg/mL | bone mineral density T-scores and Z-scores (femoral neck, lumbar spine), DEXA ([1]; single patient, week 24 versus baseline): unchanged | p value: Improvement in quality of life, Change from baseline in quality of life (QoL) symptom severity score (LS mean) ([2]; 100 mg/day): p = 0.004 | p value: Improvement in quality of life, Change from baseline in quality of life (QoL) symptom severity score (LS mean) ([2]; 200 mg/day + once-daily ABT): p < 0.001 | proportion of patients with menstrual blood loss to a level of 80 mL and a 50% reduction from baseline ([2]; 52 weeks, 100 mg per day without ABT): 53.2% | proportion of patients with menstrual blood loss ≤80 mL and ≥50% reduction from baseline ([2]; 52 weeks, 200 mg per day + ABT): 91.6% | bone mineral density, lumbar spine ([2]; once-daily treatment, 24 and 52 weeks, FIG. 9): does not induce a substantial decrease in bone mineral density
